Assays:
Experiment in all cases: KINOMEscan
Format in all cases: binding
Conditions in all cases: 35 at 1 µM; read-out: % inhibition
[1] = biological target: T1, ACVR2A (Homo sapiens, UniProt P27037)
T1 construct: purchased Eurofins DiscoverX (KINOMEscan)
Description: (§1) KinomeScan Assay on 35 was performed as previously described at EuroFins DiscoverX (Fremont, CA, USA).

[2] = biological target: T2, AKT2 (Homo sapiens, UniProt P31751)
T2 construct: purchased Eurofins DiscoverX (KINOMEscan)
Description: as §1

[3] = biological target: T3, CHEK1 (Homo sapiens, UniProt O14757)
T3 construct: purchased Eurofins DiscoverX (KINOMEscan)
Description: as §1

[4] = biological target: T4, CSNK1A1 (Homo sapiens, UniProt P48729)
T4 construct: purchased Eurofins DiscoverX (KINOMEscan)
Description: as §1

[5] = biological target: T5, DDR1 (Homo sapiens, UniProt Q08345)
T5 construct: purchased Eurofins DiscoverX (KINOMEscan)
Description: as §1

[6] = biological target: T6, EGFR (Homo sapiens, UniProt P00533)
T6 construct: purchased Eurofins DiscoverX (KINOMEscan)
Description: as §1

[7] = biological target: T7, EGFR(S752-I759del) (Homo sapiens, UniProt P00533, DEL752-759)
T7 construct: purchased Eurofins DiscoverX (KINOMEscan)
Description: as §1

[8] = biological target: T8, EPHA7 (Homo sapiens, UniProt Q15375)
T8 construct: purchased Eurofins DiscoverX (KINOMEscan)
Description: as §1

[9] = biological target: T9, ERBB2 (Homo sapiens, UniProt P04626)
T9 construct: purchased Eurofins DiscoverX (KINOMEscan)
Description: as §1

[10] = biological target: T10, FGFR4 (Homo sapiens, UniProt P22455)
T10 construct: purchased Eurofins DiscoverX (KINOMEscan)
Description: as §1

[11] = biological target: T11, FLT3(D835H) (Homo sapiens, UniProt P36888, D835H)
T11 construct: purchased Eurofins DiscoverX (KINOMEscan)
Description: as §1

[12] = biological target: T12, GRK3 (Homo sapiens, UniProt P35626)
T12 construct: purchased Eurofins DiscoverX (KINOMEscan)
Description: as §1

[13] = biological target: T13, HIPK2 (Homo sapiens, UniProt Q9H2X6)
T13 construct: purchased Eurofins DiscoverX (KINOMEscan)
Description: as §1

[14] = biological target: T14, IKK-alpha (Homo sapiens, UniProt O15111)
T14 construct: purchased Eurofins DiscoverX (KINOMEscan)
Description: as §1

[15] = biological target: T15, KIT(D816H) (Homo sapiens, UniProt P10721, D816H)
T15 construct: purchased Eurofins DiscoverX (KINOMEscan)
Description: as §1

[16] = biological target: T16, KIT(L576P) (Homo sapiens, UniProt P10721, L576P)
T16 construct: purchased Eurofins DiscoverX (KINOMEscan)
Description: as §1

[17] = biological target: T17, LKB1 (Homo sapiens, UniProt Q15831)
T17 construct: purchased Eurofins DiscoverX (KINOMEscan)
Description: as §1

[18] = biological target: T18, LRRK2 (Homo sapiens, UniProt Q5S007)
T18 construct: purchased Eurofins DiscoverX (KINOMEscan)
Description: as §1

[19] = biological target: T19, MAP3K3 (Homo sapiens, UniProt Q99759)
T19 construct: purchased Eurofins DiscoverX (KINOMEscan)
Description: as §1

[20] = biological target: T20, MARK2 (Homo sapiens, UniProt Q7KZI7)
T20 construct: purchased Eurofins DiscoverX (KINOMEscan)
Description: as §1

[21] = biological target: T21, MEK6 (Homo sapiens, UniProt P52564)
T21 construct: purchased Eurofins DiscoverX (KINOMEscan)
Description: as §1

[22] = biological target: T22, MET(Y1235D) (Homo sapiens, UniProt P08581, Y1235D)
T22 construct: purchased Eurofins DiscoverX (KINOMEscan)
Description: as §1

[23] = biological target: T23, MST3 (Homo sapiens, UniProt Q9Y6E0)
T23 construct: purchased Eurofins DiscoverX (KINOMEscan)
Description: as §1

[24] = biological target: T24, NDR2 (Homo sapiens, UniProt Q9Y2H1)
T24 construct: purchased Eurofins DiscoverX (KINOMEscan)
Description: as §1

[25] = biological target: T25, NLK (Homo sapiens, UniProt Q9UBE8)
T25 construct: purchased Eurofins DiscoverX (KINOMEscan)
Description: as §1

[26] = biological target: T26, PAK3 (Homo sapiens, UniProt O75914)
T26 construct: purchased Eurofins DiscoverX (KINOMEscan)
Description: as §1

[27] = biological target: T27, PDGFRA (Homo sapiens, UniProt P16234)
T27 construct: purchased Eurofins DiscoverX (KINOMEscan)
Description: as §1

[28] = biological target: T28, PIK3C2G (Homo sapiens, UniProt O75747)
T28 construct: purchased Eurofins DiscoverX (KINOMEscan)
Description: as §1

[29] = biological target: T29, PIK3CA(E545K) (Homo sapiens, UniProt P42336, E545K)
T29 construct: purchased Eurofins DiscoverX (KINOMEscan)
Description: as §1

[30] = biological target: T30, PIK3CA(I800L) (Homo sapiens, UniProt P42336, I800L)
T30 construct: purchased Eurofins DiscoverX (KINOMEscan)
Description: as §1

[31] = biological target: T31, PIK3CB (Homo sapiens, UniProt P42338)
T31 construct: purchased Eurofins DiscoverX (KINOMEscan)
Description: as §1

[32] = biological target: T32, PIK3CD (Homo sapiens, UniProt O00329)
T32 construct: purchased Eurofins DiscoverX (KINOMEscan)
Description: as §1

[33] = biological target: T33, PIK4CB (Homo sapiens, UniProt Q9UBF8)
T33 construct: purchased Eurofins DiscoverX (KINOMEscan)
Description: as §1

[34] = biological target: T34, PIM3 (Homo sapiens, UniProt Q86V86)
T34 construct: purchased Eurofins DiscoverX (KINOMEscan)
Description: as §1

[35] = biological target: T35, PRKD3 (Homo sapiens, UniProt O94806)
T35 construct: purchased Eurofins DiscoverX (KINOMEscan)
Description: as §1

[36] = biological target: T36, RSK4(Kin.Dom.1-N-terminal) (Homo sapiens, UniProt Q9UK32)
T36 construct: RSK4(Kin.Dom.1-N-terminal); purchased Eurofins DiscoverX (KINOMEscan)
Description: as §1

[37] = biological target: T37, SGK3 (Homo sapiens, UniProt Q96BR1)
T37 construct: purchased Eurofins DiscoverX (KINOMEscan)
Description: as §1

[38] = biological target: T38, SNARK (Homo sapiens, UniProt Q9H093)
T38 construct: purchased Eurofins DiscoverX (KINOMEscan)
Description: as §1

[39] = biological target: T39, SRPK2 (Homo sapiens, UniProt P78362)
T39 construct: purchased Eurofins DiscoverX (KINOMEscan)
Description: as §1

[40] = biological target: T40, TAK1 (Homo sapiens, UniProt O43318)
T40 construct: purchased Eurofins DiscoverX (KINOMEscan)
Description: as §1

[41] = biological target: T41, WEE2 (Homo sapiens, UniProt P0C1S8)
T41 construct: purchased Eurofins DiscoverX (KINOMEscan)
Description: as §1

[42] = biological target: T42, WNK1 (Homo sapiens, UniProt Q9H4A3)
T42 construct: purchased EuroFins DiscoverX (Fremont, CA, USA)
Description: as §1

T25 sequence (Q9UBE8 whole entry): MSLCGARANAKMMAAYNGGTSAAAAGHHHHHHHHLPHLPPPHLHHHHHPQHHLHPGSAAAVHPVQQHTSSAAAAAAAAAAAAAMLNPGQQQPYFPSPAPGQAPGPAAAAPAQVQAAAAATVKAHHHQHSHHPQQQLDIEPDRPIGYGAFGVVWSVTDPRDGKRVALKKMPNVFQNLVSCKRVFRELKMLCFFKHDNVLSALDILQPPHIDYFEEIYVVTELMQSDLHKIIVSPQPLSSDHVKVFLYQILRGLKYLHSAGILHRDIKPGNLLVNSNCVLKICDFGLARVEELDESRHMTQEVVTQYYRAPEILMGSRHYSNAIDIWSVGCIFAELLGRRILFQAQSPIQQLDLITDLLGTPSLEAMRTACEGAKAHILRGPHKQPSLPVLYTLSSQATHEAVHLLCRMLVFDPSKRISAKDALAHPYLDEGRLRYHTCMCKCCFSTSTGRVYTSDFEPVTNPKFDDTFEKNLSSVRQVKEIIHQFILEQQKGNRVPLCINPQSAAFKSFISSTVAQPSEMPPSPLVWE
T4 sequence (P48729 whole entry): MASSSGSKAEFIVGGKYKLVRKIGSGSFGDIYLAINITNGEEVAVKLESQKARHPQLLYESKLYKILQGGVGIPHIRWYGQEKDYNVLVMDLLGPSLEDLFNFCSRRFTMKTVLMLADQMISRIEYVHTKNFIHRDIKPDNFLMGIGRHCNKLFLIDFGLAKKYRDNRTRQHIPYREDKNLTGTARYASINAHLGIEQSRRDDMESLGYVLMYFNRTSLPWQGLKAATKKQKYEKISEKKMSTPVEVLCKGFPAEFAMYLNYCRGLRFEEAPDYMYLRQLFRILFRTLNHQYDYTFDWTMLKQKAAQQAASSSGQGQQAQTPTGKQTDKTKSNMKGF
T27 sequence (P16234 24-1089): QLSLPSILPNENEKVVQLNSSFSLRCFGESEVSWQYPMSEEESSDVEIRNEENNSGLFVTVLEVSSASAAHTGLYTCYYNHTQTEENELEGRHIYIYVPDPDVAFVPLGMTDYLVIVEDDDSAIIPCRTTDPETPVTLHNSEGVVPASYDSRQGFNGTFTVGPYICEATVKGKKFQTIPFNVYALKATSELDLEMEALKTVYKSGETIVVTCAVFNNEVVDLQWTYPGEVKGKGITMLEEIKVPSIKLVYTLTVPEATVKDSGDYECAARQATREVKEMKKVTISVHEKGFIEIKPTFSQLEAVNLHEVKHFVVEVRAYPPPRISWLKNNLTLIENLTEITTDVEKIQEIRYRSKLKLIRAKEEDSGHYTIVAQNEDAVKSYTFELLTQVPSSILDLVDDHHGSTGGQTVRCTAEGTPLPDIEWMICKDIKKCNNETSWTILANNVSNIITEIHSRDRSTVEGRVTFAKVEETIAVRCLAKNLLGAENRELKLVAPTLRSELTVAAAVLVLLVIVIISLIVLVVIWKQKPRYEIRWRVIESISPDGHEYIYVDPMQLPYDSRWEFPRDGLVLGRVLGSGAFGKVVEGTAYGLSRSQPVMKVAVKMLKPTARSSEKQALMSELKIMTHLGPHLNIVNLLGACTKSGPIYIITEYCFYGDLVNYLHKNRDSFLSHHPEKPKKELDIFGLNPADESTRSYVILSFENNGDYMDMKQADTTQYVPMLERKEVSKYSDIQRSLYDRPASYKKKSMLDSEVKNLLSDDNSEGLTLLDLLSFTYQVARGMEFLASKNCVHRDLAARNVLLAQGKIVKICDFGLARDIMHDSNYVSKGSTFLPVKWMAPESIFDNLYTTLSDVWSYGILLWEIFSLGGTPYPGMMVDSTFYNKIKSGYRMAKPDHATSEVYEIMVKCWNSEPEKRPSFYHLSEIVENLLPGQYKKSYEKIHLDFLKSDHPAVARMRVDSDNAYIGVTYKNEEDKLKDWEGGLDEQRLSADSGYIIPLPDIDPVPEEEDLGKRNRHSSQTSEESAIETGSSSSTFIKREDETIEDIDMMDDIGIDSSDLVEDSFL
T24 sequence (Q9Y2H1 whole entry): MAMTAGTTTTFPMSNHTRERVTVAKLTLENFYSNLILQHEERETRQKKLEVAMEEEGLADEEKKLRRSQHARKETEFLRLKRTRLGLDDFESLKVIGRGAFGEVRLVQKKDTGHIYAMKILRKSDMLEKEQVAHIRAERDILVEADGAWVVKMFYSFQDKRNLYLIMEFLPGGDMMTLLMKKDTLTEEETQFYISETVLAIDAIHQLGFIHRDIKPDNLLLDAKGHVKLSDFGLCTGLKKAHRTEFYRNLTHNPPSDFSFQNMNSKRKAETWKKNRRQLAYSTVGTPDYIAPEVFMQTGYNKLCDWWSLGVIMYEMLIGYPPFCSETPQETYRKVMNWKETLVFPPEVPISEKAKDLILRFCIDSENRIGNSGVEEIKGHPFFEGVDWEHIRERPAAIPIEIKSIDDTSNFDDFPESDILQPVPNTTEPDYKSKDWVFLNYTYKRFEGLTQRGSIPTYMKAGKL
T5 sequence (Q08345 19-913): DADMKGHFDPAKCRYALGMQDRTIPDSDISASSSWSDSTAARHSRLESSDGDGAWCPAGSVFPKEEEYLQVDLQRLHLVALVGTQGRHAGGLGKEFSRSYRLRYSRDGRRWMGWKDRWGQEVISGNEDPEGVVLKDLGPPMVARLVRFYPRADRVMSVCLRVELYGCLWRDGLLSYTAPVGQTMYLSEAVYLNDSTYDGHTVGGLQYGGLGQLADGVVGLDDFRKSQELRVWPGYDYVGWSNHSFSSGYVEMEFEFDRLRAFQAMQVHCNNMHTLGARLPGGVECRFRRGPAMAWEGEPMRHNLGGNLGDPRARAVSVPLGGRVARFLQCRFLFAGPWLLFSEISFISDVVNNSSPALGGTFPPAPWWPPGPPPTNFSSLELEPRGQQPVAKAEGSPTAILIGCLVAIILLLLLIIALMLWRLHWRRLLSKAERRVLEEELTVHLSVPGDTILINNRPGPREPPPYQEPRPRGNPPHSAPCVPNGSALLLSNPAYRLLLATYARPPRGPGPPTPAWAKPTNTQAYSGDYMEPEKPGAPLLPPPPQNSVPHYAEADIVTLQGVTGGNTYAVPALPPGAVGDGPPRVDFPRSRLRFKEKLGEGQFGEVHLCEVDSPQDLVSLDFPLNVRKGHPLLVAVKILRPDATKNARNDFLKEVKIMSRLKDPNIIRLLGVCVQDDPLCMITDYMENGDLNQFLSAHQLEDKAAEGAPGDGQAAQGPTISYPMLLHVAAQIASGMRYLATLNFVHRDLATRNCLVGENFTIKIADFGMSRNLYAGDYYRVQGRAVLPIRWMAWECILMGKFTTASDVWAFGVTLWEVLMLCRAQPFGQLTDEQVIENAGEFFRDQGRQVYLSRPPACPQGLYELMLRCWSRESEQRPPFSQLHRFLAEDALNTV
T12 sequence (P35626 whole entry): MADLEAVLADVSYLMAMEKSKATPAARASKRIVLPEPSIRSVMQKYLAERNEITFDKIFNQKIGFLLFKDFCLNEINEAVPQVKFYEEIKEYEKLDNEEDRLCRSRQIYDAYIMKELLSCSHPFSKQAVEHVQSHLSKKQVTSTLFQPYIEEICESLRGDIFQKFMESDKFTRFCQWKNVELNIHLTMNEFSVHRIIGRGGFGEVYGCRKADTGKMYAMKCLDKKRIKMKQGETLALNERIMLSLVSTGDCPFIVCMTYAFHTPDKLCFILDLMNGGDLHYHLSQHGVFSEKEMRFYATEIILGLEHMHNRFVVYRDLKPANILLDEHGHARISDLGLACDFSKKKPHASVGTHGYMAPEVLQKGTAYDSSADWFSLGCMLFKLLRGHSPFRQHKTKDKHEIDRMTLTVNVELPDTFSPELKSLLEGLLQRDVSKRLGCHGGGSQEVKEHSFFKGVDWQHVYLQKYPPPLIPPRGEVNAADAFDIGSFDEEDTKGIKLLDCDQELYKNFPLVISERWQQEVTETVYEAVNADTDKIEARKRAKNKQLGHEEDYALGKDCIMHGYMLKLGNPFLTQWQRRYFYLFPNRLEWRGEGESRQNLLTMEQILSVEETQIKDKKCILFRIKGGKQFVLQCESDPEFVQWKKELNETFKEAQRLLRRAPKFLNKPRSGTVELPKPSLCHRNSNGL
T39 sequence (P78362 whole entry): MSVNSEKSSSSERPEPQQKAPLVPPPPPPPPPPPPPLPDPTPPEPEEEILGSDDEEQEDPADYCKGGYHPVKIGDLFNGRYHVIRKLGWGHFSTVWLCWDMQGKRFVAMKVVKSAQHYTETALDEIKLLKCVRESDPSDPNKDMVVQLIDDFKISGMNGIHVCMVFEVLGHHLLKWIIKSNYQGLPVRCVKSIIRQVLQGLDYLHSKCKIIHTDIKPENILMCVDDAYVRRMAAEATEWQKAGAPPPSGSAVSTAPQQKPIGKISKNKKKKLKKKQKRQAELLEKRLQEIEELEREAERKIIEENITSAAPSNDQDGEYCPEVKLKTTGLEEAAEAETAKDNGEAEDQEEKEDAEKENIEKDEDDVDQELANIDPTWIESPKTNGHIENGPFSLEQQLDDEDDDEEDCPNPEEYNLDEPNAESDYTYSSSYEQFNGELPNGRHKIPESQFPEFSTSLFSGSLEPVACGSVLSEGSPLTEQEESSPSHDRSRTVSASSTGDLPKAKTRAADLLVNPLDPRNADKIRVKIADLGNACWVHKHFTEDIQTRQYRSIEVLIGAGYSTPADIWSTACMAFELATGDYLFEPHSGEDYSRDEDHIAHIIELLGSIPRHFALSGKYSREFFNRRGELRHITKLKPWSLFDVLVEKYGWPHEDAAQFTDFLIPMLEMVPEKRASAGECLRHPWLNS

Question: `Brc1ccc2nccc(Nc3ccc4cn[nH]c4c3)c2c1` [Compound 35, 6-Bromo-N-(1H-indazol-6-yl)quinolin-4-amine] was tested. Which activity at 1 µM [1] did it give?
Answer: The activity at 1 µM was 100%.

Question: And the activity at 1 µM [2]?
Answer: The activity at 1 µM was 100%.

Question: What about the activity at 1 µM [3] of the same compound?
Answer: The activity at 1 µM was 100%.

Question: What about the activity at 1 µM [4] of the same compound?
Answer: Its activity at 1 µM is 62%.

Question: What about the activity at 1 µM [5] of the same compound?
Answer: The activity at 1 µM was 79%.

Question: And the activity at 1 µM [6]?
Answer: Its activity at 1 µM is 100%.

Question: And the activity at 1 µM [7]?
Answer: Its activity at 1 µM is 89%.

Question: And the activity at 1 µM [8]?
Answer: The activity at 1 µM was 100%.

Question: What about the activity at 1 µM [9] of the same compound?
Answer: Its activity at 1 µM is 100%.

Question: And the activity at 1 µM [10]?
Answer: Its activity at 1 µM is 100%.

Question: What about the activity at 1 µM [11] of the same compound?
Answer: Its activity at 1 µM is 94%.

Question: And the activity at 1 µM [12]?
Answer: The activity at 1 µM was 76%.

Question: And the activity at 1 µM [13]?
Answer: The activity at 1 µM was 88%.

Question: And the activity at 1 µM [14]?
Answer: The activity at 1 µM was 100%.

Question: What about the activity at 1 µM [15] of the same compound?
Answer: The activity at 1 µM was 100%.

Question: And the activity at 1 µM [16]?
Answer: The activity at 1 µM was 100%.

Question: What about the activity at 1 µM [17] of the same compound?
Answer: The activity at 1 µM was 100%.

Question: And the activity at 1 µM [18]?
Answer: Its activity at 1 µM is 100%.

Question: And the activity at 1 µM [19]?
Answer: The activity at 1 µM was 100%.

Question: And the activity at 1 µM [20]?
Answer: Its activity at 1 µM is 100%.

Question: What about the activity at 1 µM [21] of the same compound?
Answer: The activity at 1 µM was 100%.

Question: And the activity at 1 µM [22]?
Answer: Its activity at 1 µM is 100%.

Question: And the activity at 1 µM [23]?
Answer: Its activity at 1 µM is 100%.

Question: And the activity at 1 µM [24]?
Answer: Its activity at 1 µM is 89%.

Question: And the activity at 1 µM [25]?
Answer: The activity at 1 µM was 100%.

Question: What about the activity at 1 µM [26] of the same compound?
Answer: The activity at 1 µM was 100%.

Question: And the activity at 1 µM [27]?
Answer: Its activity at 1 µM is 100%.

Question: What about the activity at 1 µM [28] of the same compound?
Answer: The activity at 1 µM was 100%.

Question: What about the activity at 1 µM [29] of the same compound?
Answer: The activity at 1 µM was 66%.

Question: What about the activity at 1 µM [30] of the same compound?
Answer: The activity at 1 µM was 76%.

Question: What about the activity at 1 µM [31] of the same compound?
Answer: The activity at 1 µM was 94%.

Question: And the activity at 1 µM [32]?
Answer: Its activity at 1 µM is 100%.

Question: What about the activity at 1 µM [33] of the same compound?
Answer: The activity at 1 µM was 100%.

Question: And the activity at 1 µM [34]?
Answer: Its activity at 1 µM is 100%.

Question: What about the activity at 1 µM [35] of the same compound?
Answer: Its activity at 1 µM is 100%.

Question: And the activity at 1 µM [36]?
Answer: The activity at 1 µM was 100%.

Question: What about the activity at 1 µM [37] of the same compound?
Answer: Its activity at 1 µM is 100%.

Question: What about the activity at 1 µM [38] of the same compound?
Answer: Its activity at 1 µM is 100%.

Question: What about the activity at 1 µM [39] of the same compound?
Answer: The activity at 1 µM was 100%.

Question: What about the activity at 1 µM [40] of the same compound?
Answer: Its activity at 1 µM is 100%.

Question: What about the activity at 1 µM [41] of the same compound?
Answer: The activity at 1 µM was 97%.

Question: What about the activity at 1 µM [42] of the same compound?
Answer: Its activity at 1 µM is 100%.

From paper PMC6891286, “Towards the Development of an In vivo Chemical Probe for Cyclin G Associated Kinase (GAK)” (Molecules, 2019)
